From US10047036B2, “Method for the synthesis of hydroxy-triglycerides and uses thereof for the prevention and treatment of diseases” (UNIVERSITAT DE LES ILLES BALEARS, priority 2014, dated 2018)

Columns and labels:
triglycerides in plasma = experiment: plasma triglycerides in SHR rats; type: in vivo; conditions: 6 days, 400 mg/kg, p.o.
From the text: Metabolic and cardiovascular pathologies are closely related. The overfeeding which characterises our society not only gives rise to problems of obesity and excess weight. It is also linked to the appearance of diabetes, dyslipidaemia, hypertension, strokes, arteriosclerosis, ictus, etc. All of these pathologies increase the risk of premature death and can even cause death. In this sense, certain natural oils show a certain efficacy against this type of pathologies, but their power is limited. In contrast, the molecules of the invention have an important effect against the development of this type of pathologies. To be able to study the effects of the compounds of the invention for the prevention and treatment of metabolic and cardiovascular pathologies, hypertensive rats were used (SHR strain, spontaneously hypertensive rats). These rats present obesity, high blood pressure, dyslipidaemia (hypercholesterolemia and hypertriglyceridemia), diabetes, metabolic syndrome and other related health problems. […] [table]

[1] = system: Drosophila melanogaster flies with human Alzheimer's genes (F1); experiment: geotaxis (climbing) test in Drosophila melanogaster with Alzheimer's disease; type: in vivo; conditions: 100 μM in the food; for Geotaxis: age at which the animals showed a geotaxis of nil: no fly passes the line
From the text: To investigate the effect of TGMs on the cognitive parameters and aging, another model of Alzheimer's disease in Drosophila melanogaster flies with genetic alterations corresponding to human Alzheimer's was used. The flies used were the first generation (F1) from the crossing of UAS-Aβ human-Tau 2N4R (stock 33771) flies with elav-GAL4^c155 (stock 8760) flies. This model which over-expresses the two proteins typical of Alzheimer's disease is complementary to the model described above and very convenient, as these animals have a life of approximately 1 month and it is possible to add the compounds to the food of the larvae to see the preventative effect thereof throughout their entire life. Also, it allows the effect on aging to be seen and on the life expectancy of these animals (survival over time).
In this sense, the flies with human Alzheimer's (F1) present a greater cognitive decline in comparison to the “Oregon” fly strain, which are the healthy controls. To evaluate the effect of the hydroxy-triglycerides of the invention, each one of the TGMs (100 μM) was added to the food consumed by these animals. It was possible to observe a positive effect of same in the geotaxis test of climbing (FIG. 7B and Table 11). In this test, the behavioural motor activity was investigated in 25 flies treated with vehicle or one of the TGMs. In this study, the flies were introduced in a glass cylinder with an opening closed with a sponge so air could enter. The flies were taken to the ground (bottom) of the pipe by giving it a sharp blow on a table and their behaviour was timed during 20 seconds. Once this time was over, the number of flies which had passed (crossed) a mark at 15 cm from the bottom was counted (geotaxis test). Usually, more than 90% of healthy young flies passed the line within 20 seconds. However, with aging or with Alzheimer's disease, the behavioural motor activity (percentage of flies which crossed the line) declined, compared to normal flies. In this context, the treatments with the hydroxy-triglycerides of the present invention avoided this cognitive decline associated to Alzheimer's, making the cognitive capacity of the diseased flies similar to that of the healthy flies. […] This positive effect on the cognitive parameters in flies was also shown by other TGMs (Table 11). In fact, in the control group with Alzheimer, no fly crossed the line as of 23 days of age. In this sense, the different hydroxy-triglycerides induced marked increases in the geotaxis test values, with increases in the cognitive values which reached up to 36 days, 50% more in the life of the flies with Alzheimer's (Table 11).

[2] = molecular target: T1, Glycogen Branching Enzyme 1 (GBE1) wild type (Homo sapiens, UniProt Q04446); experiment: activity of purified enzyme GBE1 in the presence of PC membranes; type: biochemical; conditions: PC membranes with TGM 20 mol %; non-mutated enzyme = 100% (0.76 nmol/min · ng protein)
T1 sequence (Q04446 1-702): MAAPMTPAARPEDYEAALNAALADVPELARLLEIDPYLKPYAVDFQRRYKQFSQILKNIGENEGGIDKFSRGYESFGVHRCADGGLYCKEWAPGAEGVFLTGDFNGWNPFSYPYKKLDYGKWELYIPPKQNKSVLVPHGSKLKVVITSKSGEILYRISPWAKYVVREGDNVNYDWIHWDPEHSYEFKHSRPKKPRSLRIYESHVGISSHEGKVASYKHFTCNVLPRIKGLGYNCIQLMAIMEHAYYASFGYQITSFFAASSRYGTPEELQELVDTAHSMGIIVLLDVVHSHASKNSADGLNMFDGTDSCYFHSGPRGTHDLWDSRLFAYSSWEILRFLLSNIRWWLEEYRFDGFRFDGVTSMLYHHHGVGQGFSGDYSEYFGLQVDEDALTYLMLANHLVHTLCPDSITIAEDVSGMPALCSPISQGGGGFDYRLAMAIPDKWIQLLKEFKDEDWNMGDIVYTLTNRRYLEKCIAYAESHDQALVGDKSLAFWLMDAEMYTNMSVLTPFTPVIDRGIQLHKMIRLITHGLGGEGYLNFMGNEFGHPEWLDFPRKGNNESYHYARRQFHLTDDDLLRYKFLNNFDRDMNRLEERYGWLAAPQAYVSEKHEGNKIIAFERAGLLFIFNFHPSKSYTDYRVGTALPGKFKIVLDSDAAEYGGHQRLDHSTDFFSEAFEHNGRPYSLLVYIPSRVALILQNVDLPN
From the text: It has been possible to observe that the molecules of the present invention are capable of regulating the activity of the Glycogen Branching Enzyme 1 (GBE1) and its joining to membranes (Table 9). Alterations in this enzyme give rise to a neurodegenerative process known as APBD (Kakhlon et al., 2013). It has been described that a modification of tyrosine in position 329 of this enzyme (Y329S) causes a reduction in the activity of GBE1. This gives rise to a lower branching of glycogen, which precipitates forming […] which interfere with cell activity (Kakhlon et al., 2013). This gives rise to problems in the function of certain organs, to motor problems and, in some cases, to cognitive decline. We have been able to verify that the hydroxy-triglycerides of the present invention are capable of regulating the joining of native GBE1 (wild type, wt) and with the variant Y329S to membranes and to increase the activity of the form Y329S, which is very low in normal conditions (Table 9). For this reason, the molecules of the present invention are effective for the prevention and treatment of the polyglucosan bodies disease, APBD.

Row | SMILES | TG, levels of triglycerides in plasma (triglycerides in plasma) [mg/dL] | Geotaxis: age at which the animals showed a geotaxis of nil [1] [days] | Activity GBE1wt [2] [%] | cognitive parameters in the climbing test (FIG. 7B) ([1]; compared with normal flies)
1 | CCCCCC(O)C(=O)OCC(COC(=O)C(O)CCCCC)OC(=O)C(O)CCCCC (stereo not shown) [TGM0, 1,2,3-tri(2′-hydroxyheptanoyl)glycerol] | 69.7 ± 7 | 25 | 95 ± 12 | 
2 | CCCCCCCCC=CCCCCCCC(O)C(=O)OCC(COC(=O)C(O)CCCCCCC=CCCCCCCCC)OC(=O)C(O)CCCCCCC=CCCCCCCCC (stereo not shown) [TGM1, 1,2,3-tri(2′-hydroxy-octadec-9′-enoyl)glycerol] | 51.6 ± 4 | 32 | 89 ± 10 | 
3 | CCCCCC=CCC=CCCCCCCC(O)C(=O)OCC(COC(=O)C(O)CCCCCCC=CCC=CCCCCC)OC(=O)C(O)CCCCCCC=CCC=CCCCCC (stereo not shown) [TGM2, 1,2,3-tri(2′-hydroxy-octadec-9′,12′-dienoyl)glycerol] | 61.7 ± 3 | 29 | 72 ± 5 | 
4 | CCC=CCC=CCC=CCCCCCCC(O)C(=O)OCC(COC(=O)C(O)CCCCCCC=CCC=CCC=CCC)OC(=O)C(O)CCCCCCC=CCC=CCC=CCC (stereo not shown) [TGM3A, 1,2,3-tri(2′-hydroxy-octadec-9′,12′,15′-trienoyl)glycerol] | 54.8 ± 4 | 36 | 88 ± 2 | 
5 | CCCCCC=CCC=CCC=CCCCC(O)C(=O)OCC(COC(=O)C(O)CCCC=CCC=CCC=CCCCCC)OC(=O)C(O)CCCC=CCC=CCC=CCCCCC (stereo not shown) [TGM3G, 1,2,3-tri(2′-hydroxy-octadec-6′,9′,12′-trienoyl)glycerol] | 64.1 ± 5 | 29 | 69 ± 7 | 
6 | CCCCCC=CCC=CCC=CCC=CCCC(O)C(=O)OCC(COC(=O)C(O)CCC=CCC=CCC=CCC=CCCCCC)OC(=O)C(O)CCC=CCC=CCC=CCC=CCCCCC (stereo not shown) [TGM4, 1,2,3-tri(2′-hydroxy-eicosa-5′,8′,11′,14′-tetraenoyl)glycerol] | 69.3 ± 3 | 35 | 31 ± 4 | 
7 | CCC=CCC=CCC=CCC=CCC=CCCC(O)C(=O)OCC(COC(=O)C(O)CCC=CCC=CCC=CCC=CCC=CCC)OC(=O)C(O)CCC=CCC=CCC=CCC=CCC=CCC (stereo not shown) [TGM5, 1,2,3-tri(2′-hydroxy-eicosa-5′,8′,11′,14′,17′-pentaenoyl)glycerol] | 56.2 ± 3 | 26 | 24 ± 2 | 
8 | CCC=CCC=CCC=CCC=CCC=CCC=CCC(O)C(=O)OCC(COC(=O)C(O)CC=CCC=CCC=CCC=CCC=CCC=CCC)OC(=O)C(O)CC=CCC=CCC=CCC=CCC=CCC=CCC (stereo not shown) [TGM6, 1,2,3-tri(2′-hydroxy-docosa-4′,7′,10′,13′,16′,19′-hexanoyl)glycerol] | 49.4 ± 4 | 28 | 33 ± 3 | practically indistinguishable from that observed in normal flies
